One molecule from patent publication US20240335544A1, “M6PR CELL SURFACE RECEPTOR BINDING COMPOUNDS AND CONJUGATES” (LYCIA THERAPEUTICS, INC., priority 2021, published 2024) can be followed below.

For one test, the target named is CI-M6PR (Homo sapiens, UniProt P11717). Kind of test: CI-M6PR SPR binding assay. To be noted: omalizumab conjugates at DAR of about 4. Here is the method: The CI-M6PR binding affinities of omalizumab (anti-IgE) conjugates of Table 19 were also assessed via SPR binding assay. […] At equivalent DAR (m) values, the koff rate of the omalizumab (anti-IgE) conjugates was 552>529>570.
CI-M6PR, sequence (P11717 41-2491): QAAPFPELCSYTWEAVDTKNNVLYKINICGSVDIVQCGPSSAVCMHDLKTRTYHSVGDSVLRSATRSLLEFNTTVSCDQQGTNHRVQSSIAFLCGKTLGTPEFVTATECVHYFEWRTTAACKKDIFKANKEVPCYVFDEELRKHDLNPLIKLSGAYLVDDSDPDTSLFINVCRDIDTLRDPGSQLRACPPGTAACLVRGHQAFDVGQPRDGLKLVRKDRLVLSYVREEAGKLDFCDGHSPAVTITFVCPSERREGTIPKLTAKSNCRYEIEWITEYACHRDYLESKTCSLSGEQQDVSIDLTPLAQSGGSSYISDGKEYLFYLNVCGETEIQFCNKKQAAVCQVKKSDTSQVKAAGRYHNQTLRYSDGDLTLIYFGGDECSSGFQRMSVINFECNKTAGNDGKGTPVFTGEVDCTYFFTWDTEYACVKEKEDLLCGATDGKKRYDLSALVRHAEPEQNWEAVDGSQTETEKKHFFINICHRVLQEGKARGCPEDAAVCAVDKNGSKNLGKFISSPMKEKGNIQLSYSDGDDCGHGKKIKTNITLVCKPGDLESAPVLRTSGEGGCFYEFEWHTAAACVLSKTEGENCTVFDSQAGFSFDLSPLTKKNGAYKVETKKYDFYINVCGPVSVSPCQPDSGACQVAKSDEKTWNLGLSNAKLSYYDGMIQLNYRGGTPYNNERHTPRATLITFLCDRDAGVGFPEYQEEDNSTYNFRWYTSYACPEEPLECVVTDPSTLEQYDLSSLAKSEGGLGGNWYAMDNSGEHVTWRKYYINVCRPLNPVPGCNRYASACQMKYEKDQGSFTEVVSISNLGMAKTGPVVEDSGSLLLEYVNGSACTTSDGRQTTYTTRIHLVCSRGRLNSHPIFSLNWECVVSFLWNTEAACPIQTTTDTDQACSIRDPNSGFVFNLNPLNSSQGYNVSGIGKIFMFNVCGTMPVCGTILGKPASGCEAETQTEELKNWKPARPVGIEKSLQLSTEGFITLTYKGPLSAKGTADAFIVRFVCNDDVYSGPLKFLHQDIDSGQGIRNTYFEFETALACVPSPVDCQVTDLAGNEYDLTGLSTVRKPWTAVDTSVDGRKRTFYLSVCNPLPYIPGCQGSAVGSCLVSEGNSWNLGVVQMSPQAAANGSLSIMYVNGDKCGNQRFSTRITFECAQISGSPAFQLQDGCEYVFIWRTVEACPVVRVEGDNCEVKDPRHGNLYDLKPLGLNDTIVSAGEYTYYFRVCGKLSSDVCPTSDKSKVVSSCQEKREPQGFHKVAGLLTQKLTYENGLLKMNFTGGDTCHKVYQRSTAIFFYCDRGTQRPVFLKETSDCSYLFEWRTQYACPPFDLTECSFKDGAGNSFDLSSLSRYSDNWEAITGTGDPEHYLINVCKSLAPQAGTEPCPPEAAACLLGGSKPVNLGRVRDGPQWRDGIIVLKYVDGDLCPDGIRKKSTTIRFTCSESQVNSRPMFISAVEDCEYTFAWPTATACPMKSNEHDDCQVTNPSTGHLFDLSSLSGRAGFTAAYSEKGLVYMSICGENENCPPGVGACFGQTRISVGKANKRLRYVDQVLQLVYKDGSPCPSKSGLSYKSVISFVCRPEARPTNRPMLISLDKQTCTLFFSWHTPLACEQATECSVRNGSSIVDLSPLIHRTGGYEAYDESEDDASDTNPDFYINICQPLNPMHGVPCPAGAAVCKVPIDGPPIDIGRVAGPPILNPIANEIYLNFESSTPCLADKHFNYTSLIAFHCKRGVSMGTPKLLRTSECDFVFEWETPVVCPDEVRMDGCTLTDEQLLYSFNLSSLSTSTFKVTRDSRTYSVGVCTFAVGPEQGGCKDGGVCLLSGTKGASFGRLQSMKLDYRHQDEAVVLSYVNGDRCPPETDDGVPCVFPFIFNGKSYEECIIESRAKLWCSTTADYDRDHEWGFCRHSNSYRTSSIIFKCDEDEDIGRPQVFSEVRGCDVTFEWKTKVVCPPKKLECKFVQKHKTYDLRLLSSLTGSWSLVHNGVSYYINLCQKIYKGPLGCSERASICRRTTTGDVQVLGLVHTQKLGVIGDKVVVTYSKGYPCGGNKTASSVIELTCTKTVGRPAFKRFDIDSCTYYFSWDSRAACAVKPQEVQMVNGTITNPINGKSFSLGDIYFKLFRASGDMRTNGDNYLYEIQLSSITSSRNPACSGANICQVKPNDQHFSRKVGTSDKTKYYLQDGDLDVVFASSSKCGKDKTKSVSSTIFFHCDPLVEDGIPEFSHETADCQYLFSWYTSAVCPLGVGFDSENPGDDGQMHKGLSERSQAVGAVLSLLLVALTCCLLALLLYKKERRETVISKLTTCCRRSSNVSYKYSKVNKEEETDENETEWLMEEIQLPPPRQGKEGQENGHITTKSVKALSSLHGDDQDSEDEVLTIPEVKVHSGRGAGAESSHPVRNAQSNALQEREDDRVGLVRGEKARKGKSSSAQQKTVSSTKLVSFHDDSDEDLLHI

Another test concerns Jurkat cells. The test is described as follows: Uptake of IgE-Alexa488 target by omalizumab conjugates in Jurkat cells. The test is classed as cell-based. On the procedure: The omalizumab conjugates of Example 142 were bound to IgE-Alexa488 (prepared according to Example 144), as follows: equal molar ratios of omalizumab (anti-IgE) conjugate and IgE-Alexa488 were added in tissue culture media for 30 minutes at room temperature. The resulting anti-IgE conjugate:IgE antibody-Alexa488 compositions were added to Jurkat cells (100 k cells/50 ul per well, n=2), and Alexa488 fluorescence levels in the cells were measured at 1 hour by flow cytometry. As the fluorescently labelled target (IgE antibody) accumulates in cells, the fluorescence presents a way to measure total intracellular uptake by cells over time.

In the case of `O=C(NCCCCc1cn(CCOCCOCCOCCOCCC(=O)Oc2c(F)c(F)c(F)c(F)c2F)nn1)Nc1ccc(S[C@@H]2O[C@H](CCP(=O)(O)O)[C@@H](O)[C@H](O)[C@@H]2O)cc1` [Compound 570], on CI-M6PR, the “Kd (CI-M6PR binding affinity by SPR), relative” value was “superior Kd relative to corresponding α-O (529) and α-S-glycosides (552)”. In the test on Jurkat cells (1 hour, FIGS. 18-21), the “relative cellular uptake activity of IgE-Alexa488, omalizumab conjugates of Table 15B” value is “superior activity to conjugates having a α-S-glycoside configuration (552), and to a conjugate having an α-O-glycoside configuration (520 (I-7), m=8)”. Moreover, the “relative cellular uptake activity of IgE-Alexa488, omalizumab conjugates of Table 19” value in the test with Jurkat cells (FIG. 23, entire dose response range) was “superior activity to the corresponding conjugates of α-O-glycoside (529) and α-S-glycoside (552)”.
